# Tests used:
# S. Aureus Smith = assay: In vitro antibacterial activity, MIC (modified Autotiter method); assay type: cell-based, Staphylococcus aureus; conditions: 18-20 hours at 37° C.; for MIC: Staphylococcus aureus, 20 h, read-out: MIC S. Aureus Smith
# In short: (§1)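 Test compound was made up as a 1,000 mcg./ml. solution and serially diluted twofold in sterile water by an automated Autotiter sequence. Inoculated double-strength semisynthetic glucose medium was then added to each cup, giving final drug levels from 500 to 0.06 mcg./ml.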
# E. coli 100/B22 = assay: as above; assay type: cell-based, Escherichia coli; conditions: 18-20 hours at 37° C.; for MIC: Escherichia coli, 100/B22, 20 h, read-out: MIC E. coli 100/B22
# In short: as §1
# E. coli AB1932-1 = assay: as above; assay type: cell-based, Escherichia coli; conditions: 18-20 hours at 37° C.; for MIC: Escherichia coli, AB19321, 20 h, read-out: MIC E. coli AB1932-1
# In short: as §1
# E. coli Vogel = assay: as above; assay type: cell-based, Escherichia coli; conditions: 18-20 hours at 37° C.; for MIC: Escherichia coli, 20 h, read-out: MIC E. coli Vogel
# In short: as §1
# K. pneum. 39645 = assay: as above; assay type: cell-based, Klebsiella pneumoniae; conditions: 18-20 hours at 37° C.; for MIC: Klebsiella pneumoniae, 20 h, read-out: MIC K. pneum. 39645
# In short: as §1
# P. mirab. MGH-1 = assay: as above; assay type: cell-based, Proteus mirabilis; conditions: 18-20 hours at 37° C.; for MIC: Proteus mirabilis, 20 h, read-out: MIC P. mirab. MGH-1
# In short: as §1
# Ps. aerug. MGH-2 = assay: as above; assay type: cell-based, Pseudomonas aeruginosa; conditions: 18-20 hours at 37° C.; for MIC: Pseudomonas aeruginosa, 20 h, read-out: MIC Ps. aerug. MGH-2
# In short: as §1
# S. pyogen. C203 = assay: as above; assay type: cell-based, Streptococcus pyogenes; conditions: 18-20 hours at 37° C.; for MIC: Streptococcus pyogenes, 20 h, read-out: MIC S. pyogen. C203
# In short: as §1
# A. niger 16404 = assay: In vitro antifungal activity, MIC (modified Autotiter method); assay type: cell-based, Aspergillus niger; conditions: 18-20 hours at 37° C.; for MIC: Aspergillus niger, 16404, 20 h, read-out: MIC A. niger 16404
# In short: as §1
# C. albicans 10231 = assay: as above; assay type: cell-based, Candida albicans; conditions: 18-20 hours at 37° C.; for MIC: Candida albicans, 10231, 20 h, read-out: MIC C. albicans 10231
# In short: as §1
# C. albicans Wisc. = assay: as above; assay type: cell-based, Candida albicans; conditions: 18-20 hours at 37° C.; for MIC: Candida albicans, 20 h, read-out: MIC C. albicans Wisc.
# In short: as §1
# T. menta. 9129 = assay: as above; assay type: cell-based, Trichophyton mentagrophytes; conditions: 18-20 hours at 37° C.; for MIC: Trichophyton mentagrophytes, 20 h, read-out: MIC T. menta. 9129
# In short: as §1
SMILES,MIC (S. Aureus Smith),MIC (E. coli 100/B22),MIC (E. coli AB1932-1),MIC (E. coli Vogel),MIC (K. pneum. 39645),MIC (P. mirab. MGH-1),MIC (Ps. aerug. MGH-2),MIC (S. pyogen. C203),MIC (A. niger 16404),MIC (C. albicans 10231),MIC (C. albicans Wisc.),MIC (T. menta. 9129),other results
"CCCCCCCCCCCCNc1cc[n+](CCCCCCCCC[n+]2ccc(NCCCCCCCCCCCC)cc2)cc1 [Example 73, 1,9-bis-[4-(dodecylamino)-1-pyridinium]nonane dibromide]",7.8 µg/mL,62.5 µg/mL,> 62.5 µg/mL,62.5 µg/mL,> 62.5 µg/mL,62.5 µg/mL,> 62.5 µg/mL,15.6 µg/mL,> 62.5 µg/mL,> 62.5 µg/mL,31.3 µg/mL,7.8 µg/mL,–
"Fc1ccc(Nc2cc[n+](CCCCCCCC[n+]3ccc(Nc4ccc(F)cc4)cc3)cc2)cc1 [Example 84, 1,8-bis-[4-p-fluorophenylamino)-1-pyridinium]octane dibromide]",1.95 µg/mL,15.6 µg/mL,7.8 µg/mL,15.6 µg/mL,> 62.5 µg/mL,> 125 µg/mL,> 62.5 µg/mL,7.8 µg/mL,15.6 µg/mL,15.6 µg/mL,7.8 µg/mL,15.6 µg/mL,–
"Clc1ccc(Nc2cc[n+](CCCCCC[n+]3ccc(Nc4ccc(Cl)cc4)cc3)cc2)cc1 [Example 77B, 1,6-bis-[4-(p-chlorophenylamino)-1-pyridinium]hexane dimethanesulfonate]",3.9 µg/mL,15.6 µg/mL,3.9 µg/mL,15.6 µg/mL,500 µg/mL,500 µg/mL,500 µg/mL,1.95 µg/mL,62.5 µg/mL,62.5 µg/mL,125 µg/mL,15.6 µg/mL,–
CCCCCCNc1cc[n+](CCCCCCCCCCCC[n+]2ccc(NCCCCCC)cc2)cc1 [Example 8],0.25 µg/mL,0.5 µg/mL,–,–,1 µg/mL,7.8 µg/mL,15.6 µg/mL,1 µg/mL,–,1 µg/mL,1 µg/mL,–,MIC E. coli AB1932-1 (E. coli AB1932-1): 1.0 µg/mL; MIC E. coli Vogel (E. coli Vogel): 1.0 µg/mL; MIC A. niger 16404 (A. niger 16404): 7.8 µg/mL; MIC T. menta. 9129 (T. menta. 9129): 1.0 µg/mL
"Clc1ccc(Nc2cc[n+](CCCC[n+]3ccc(Nc4ccc(Cl)cc4)cc3)cc2)cc1 [Example 76C, 1,4-bis-[4-(p-chlorophenylamino)-1-pyridinium]butane dimethanesulfonate]",7.8 µg/mL,15.6 µg/mL,7.8 µg/mL,15.6 µg/mL,> 250 µg/mL,> 250 µg/mL,> 125 µg/mL,1.95 µg/mL,> 250 µg/mL,125 µg/mL,12.5 µg/mL,62.5 µg/mL,–
"CCCCCCCCCNc1cc[n+](CCCCCC[n+]2ccc(NCCCCCCCCC)cc2)cc1 [Example 47, 1,6-bis-[4-(nonylamino)-1-pyridinium]-hexane dibromide]",0.5 µg/mL,1.95 µg/mL,1.95 µg/mL,1 µg/mL,3.9 µg/mL,3.9 µg/mL,15.6 µg/mL,1 µg/mL,–,3.9 µg/mL,1.95 µg/mL,1 µg/mL,MIC A. niger 16404 (A. niger 16404): 15.6 µg/mL
"Nc1cc[n+](CCCCCCCC[n+]2ccc(N)cc2)cc1 [I, 1,8-bis-(4-amino-1-pyridinium)octane dibromide, reference compound]",31.3 µg/mL,250 µg/mL,125 µg/mL,125 µg/mL,> 500 µg/mL,> 500 µg/mL,> 500 µg/mL,31.3 µg/mL,125 µg/mL,125 µg/mL,125 µg/mL,125 µg/mL,–
"CCCCCCCNc1cc[n+](CCCC[n+]2ccc(NCCCCCCC)cc2)cc1 [Example 20, 1,4-bis-[4-(heptylamino)-1-pyridinium]butane dibromide]",0.98 µg/mL,15.6 µg/mL,7.8 µg/mL,31.3 µg/mL,> 125 µg/mL,> 250 µg/mL,> 250 µg/mL,0.49 µg/mL,15.6 µg/mL,15.6 µg/mL,15.6 µg/mL,3.9 µg/mL,–
"CCCCCCCCCNc1cc[n+](CCCCCCCCC[n+]2ccc(NCCCCCCCCC)cc2)cc1 [Example 50, 1,9-bis-[4-(nonylamino)-1-pyridinium]nonane dibromide]",1.95 µg/mL,1.95 µg/mL,3.9 µg/mL,1.95 µg/mL,3.9 µg/mL,3.9 µg/mL,3.9 µg/mL,1.95 µg/mL,7.8 µg/mL,3.9 µg/mL,3.9 µg/mL,1.95 µg/mL,–
"CCCCCCCNc1cc[n+](CCCCCC[n+]2ccc(NCCCCCCC)cc2)cc1 [Example 62C, 1,6-bis-[4-(heptylamino)-1-pyridinium]hexane dichloride]",–,–,–,–,–,–,–,–,–,–,–,–,MIC S. Aureus Smith (S. Aureus Smith): 0.24 µg/mL; MIC E. coli 100/B22 (E. coli 100/B22): 1.95 µg/mL; MIC E. coli AB1932-1 (E. coli AB1932-1): 1.95 µg/mL; MIC E. coli Vogel (E. coli Vogel): 3.9 µg/mL; MIC K. pneum. 39645 (K. pneum. 39645): 3.9 µg/mL; MIC P. mirab. MGH-1 (P. mirab. MGH-1): > 125 µg/mL; MIC Ps. aerug. MGH-2 (Ps. aerug. MGH-2): > 62.5 µg/mL; MIC S. pyogen. C203 (S. pyogen. C203): 0.98 µg/mL; MIC A. niger 16404 (A. niger 16404): 7.8 µg/mL; MIC C. albicans 10231 (C. albicans 10231): 3.9 µg/mL; MIC C. albicans Wisc. (C. albicans Wisc.): 3.9 µg/mL; MIC T. menta. 9129 (T. menta. 9129): 3.9 µg/mL
"CCCCCCCCCCNc1cc[n+](CCCCCCCCC[n+]2ccc(NCCCCCCCCCC)cc2)cc1 [Example 67, 1,9-bis-[4-(decylamino)-1-pyridinium]nonane dibromide]",1 µg/mL,3.9 µg/mL,7.8 µg/mL,1.95 µg/mL,15.6 µg/mL,7.8 µg/mL,7.8 µg/mL,1.95 µg/mL,31.3 µg/mL,31.3 µg/mL,15.6 µg/mL,3.9 µg/mL,–
"CCCCCCCCCCCCNc1cc[n+](CCCCCCCCCCCC[n+]2ccc(NCCCCCCCCCCCC)cc2)cc1 [Example 75, 1,12-bis-[4-(dodecylamino)-1-pyridinium]dodecane dibromide]",31.3 µg/mL,> 62.5 µg/mL,> 62.5 µg/mL,> 62.5 µg/mL,> 62.5 µg/mL,> 62.5 µg/mL,> 62.5 µg/mL,15.6 µg/mL,> 62.5 µg/mL,> 62.5 µg/mL,> 62.5 µg/mL,15.6 µg/mL,–

# From patent US4206215A, “Antimicrobial bis-[4-(substituted-amino)-1-pyridinium]alkanes” (Sterling Drug Inc., priority 1977, dated 1980)
